Assay results as given in patent US11229626B2, “Synergistic nutritional compositions for treating seizures and chronic inflammatory diseases” (CELAGENEX RESEARCH (INDIA) PVT. LTD., priority 2020, dated 2022).

System: PTZ induced rat model
Test: PTZ (pentylene-tetrazole) induced convulsions, anti-convulsant activity in Wistar rats
Format: in vivo
Details: male Wistar rats, n=6 per group, 60 mg/kg PTZ intraperitoneally 1 hr after test item; for Straub Tail / Clonic Convulsions / Stupor / Tonic Convulsions: doses per Table 1; for Clonic Convulsions / Stupor / Tonic Convulsions: mean; for Recovery: outcome recovery or death
Description: The purpose of this study is to evaluate the effect of anti-convulsant activity of the test compound in Wistar Rats.
The systemic administration of PTZ is one of the most commonly employed methods for anti-convulsant screening. The preference has been given to this model due to its ease of performance, reliability, ease of expressing results and the shorter time-period to produce convulsions.
60 mg/kg of PTZ was injected per body weight, intraperitoneally 1 hr after the test item administration.
All animals were acclimatized for five days and seizures were induced by administering 60 mg/kg PTZ per body weight, 1 hr after test item administration. Normal control group was injected with phosphate buffer solution.
As Group 1 (Vehicle control), Group 2 served as diseased control, Group 3 was Reference standard and Group 4, Group 5 and Group 6 served as test substance. The dose was administered for short term (single day administration) or long term (14 or 21 days) after acclimatization.
The time was recorded for convulsion phase clonic, tonic and stupor after test administration. All values were expressed as MEAN±STD. The significant difference between the treatment and control group was estimated using oneway ANOVA with Dennett's test. All results of the statistical analysis were summarized in separate tables.

| Compound | Straub Tail | Clonic Convulsions [s] | Stupor [s] | Tonic Convulsions [s] | Recovery |
| --- | --- | --- | --- | --- | --- |
| C[N+](C)(C)[C@@H](Cc1c[nH]c(=S)[nH]1)C(=O)O [L-Ergothioneine, L-ergothioneine] | Absent | 4.66 | 70.33 | 8.00 | Recovery |
| CC[C@@H](C(N)=O)N1CCCC1=O [Levetiracetam, reference compound] | Absent | 3.33 | 56.16 | 5.83 | Recovery |
| CCCCCCCCCC(=O)OCC(COC(=O)CCCCCCCCC)OC(=O)CCCCCCCCC [Tridecanoin] | Absent | 5.00 | 74.16 | 7.66 | Recovery |
